Patent publication US20230066011A1, “PYRROLOPYRIMIDINE DERIVATIVE, AND PHARMACEUTICAL COMPOSITION FOR PREVENTING OR TREATING PROTEIN KINASE-RELATED DISEASE COMPRISING SAME AS ACTIVE INGREDIENT” (VORONOI CO., LTD., priority 2019, published 2023)

Key:
human GST-CLK1 = molecular target: T1, human GST-CLK1 (Homo sapiens, UniProt P49759); experiment: GST-CLK1 enzyme inhibition, ADP-Glo kinase assay; type: biochemical; conditions: ATP 10 μM, GST-CLK1 129-end
T1 construct: purified human GST-CLK1 (129-end, SignalChem) enzyme; purchased SignalChem
Outline: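 ADP-Glo luminescence read-out, relative to untreated solvent control, gave IC50 (nM) from triplicate data sets. Reactions ran an hour at 25° C with 3 ng GST-CLK1 (residues 129-end), 10 μM ATP and specific substrate in Tris-HCl pH 7.4 buffer with MgCl2, BSA and DTT.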

MDA-MB-468 cell line = experiment: Inhibition of proliferation of MDA-MB-468 cancer cells (Cell Titer-Glo); type: cell-based; conditions: Homo sapiens, MDA-MB-468, 72 hours
Description: (§1) To evaluate an inhibitory effect on the proliferation of cancer cells, each of an MDA-MB-231 cell line (Korean Cell Line Bank #30026) and an MDA-MB-468 cell line as triple-negative breast cancer cell lines, and SHP-77 (ATCC #CRL-2195) as a small-cell lung cancer cell line was cultured in DMEM (HyClone #SH30243) or an RPMI medium (HyClone #SH3027.01) to analyze a cell growth rate. More specifically, a cell line was plated on a 96-well flat bottom plate (Corning #3903) at a density of 2,000 cells/100 μL per well, and then treated with 11 concentrations of the Example compound, a solution of which was diluted 3-fold so that a final concentration of the compound was 10.000000, 3.333333, 1.111111, 0.370370, 0.123457, 0.041152, 0.013717, 0.004572, 0.001524, 0.000508, and 0.000169 μM. After 72 hours, each of the culture media was treated with 100 μL of Cell Titer-Glo (Promega G7573), and then cultured at room temperature for 10 minutes. Then, a degree of luminescence was measured using a microplate reader. A GI50 value was calculated from the measured degree of luminescence using Prism (Version 8.2 GraphPad) software.

human GST-DYRK1A = molecular target: T2, human GST-DYRK1A (Homo sapiens, UniProt Q13627); experiment: GST-DYRK1A enzyme inhibition, ADP-Glo kinase assay; type: biochemical; conditions: ATP 10 μM, GST-DYRK1A full length, read-out: DYRK1 IC50
T2 construct: purified human GST-DYRK1A (full length, Thermo Scientifics) enzyme; purchased Thermo Scientifics
Outline: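 Full-length enzyme (10 ng) was incubated with 10 μM ATP and a specific substrate for 1 h at 25 °C in 40 mM Tris-HCl pH 7.4, 20 mM MgCl2, 0.5 mg/mL BSA, 50 μM DTT. Luminescence was read against a solvent control, and IC50 values were derived from 3 data sets.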

LRRK2 (G2019S) = LRRK2 (G2019S) (Homo sapiens, UniProt Q5S007, G2019S); experiment: LRRK2 G2019S enzyme inhibition, ADP-Glo kinase assay; type: biochemical; design: purchased SignalChem L10-12GG; conditions: ATP 25 μM
Outline: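 IC50 derived from luminescent ADP-Glo readout against untreated solvent control, twelve final compound concentrations from 50 μM downward. Reaction: recombinant human LRRK2 G2019S enzyme, 25 μM ATP, substrate, pH 7.4 Tris buffer with MgCl2/BSA/DTT, 25° C. for 2 hours.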

MDA-MB-231 cell line = experiment: Inhibition of proliferation of MDA-MB-231 cancer cells (Cell Titer-Glo); type: cell-based; conditions: Homo sapiens, 72 hours
Description: as §1

LRRK2 = LRRK2 (Homo sapiens, UniProt Q5S007); experiment: LRRK2 enzyme inhibition, ADP-Glo kinase assay; type: biochemical; design: purchased Invitrogen PR8604B; conditions: ATP 10 μM
Outline: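 ADP-Glo luminescent read-out of ADP formed by purified human LRRK2 enzyme (25 ng), 10 μM ATP, 0.2 μg substrate, 25° C for 2 h, Tris-HCl pH 7.4 buffer with MgCl2, BSA, DTT. Inhibition versus untreated solvent control over twelve final concentrations (50 μM downward) gives IC50.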

Sequence of LRRK2 (Q5S007 970-2527 limits assumed): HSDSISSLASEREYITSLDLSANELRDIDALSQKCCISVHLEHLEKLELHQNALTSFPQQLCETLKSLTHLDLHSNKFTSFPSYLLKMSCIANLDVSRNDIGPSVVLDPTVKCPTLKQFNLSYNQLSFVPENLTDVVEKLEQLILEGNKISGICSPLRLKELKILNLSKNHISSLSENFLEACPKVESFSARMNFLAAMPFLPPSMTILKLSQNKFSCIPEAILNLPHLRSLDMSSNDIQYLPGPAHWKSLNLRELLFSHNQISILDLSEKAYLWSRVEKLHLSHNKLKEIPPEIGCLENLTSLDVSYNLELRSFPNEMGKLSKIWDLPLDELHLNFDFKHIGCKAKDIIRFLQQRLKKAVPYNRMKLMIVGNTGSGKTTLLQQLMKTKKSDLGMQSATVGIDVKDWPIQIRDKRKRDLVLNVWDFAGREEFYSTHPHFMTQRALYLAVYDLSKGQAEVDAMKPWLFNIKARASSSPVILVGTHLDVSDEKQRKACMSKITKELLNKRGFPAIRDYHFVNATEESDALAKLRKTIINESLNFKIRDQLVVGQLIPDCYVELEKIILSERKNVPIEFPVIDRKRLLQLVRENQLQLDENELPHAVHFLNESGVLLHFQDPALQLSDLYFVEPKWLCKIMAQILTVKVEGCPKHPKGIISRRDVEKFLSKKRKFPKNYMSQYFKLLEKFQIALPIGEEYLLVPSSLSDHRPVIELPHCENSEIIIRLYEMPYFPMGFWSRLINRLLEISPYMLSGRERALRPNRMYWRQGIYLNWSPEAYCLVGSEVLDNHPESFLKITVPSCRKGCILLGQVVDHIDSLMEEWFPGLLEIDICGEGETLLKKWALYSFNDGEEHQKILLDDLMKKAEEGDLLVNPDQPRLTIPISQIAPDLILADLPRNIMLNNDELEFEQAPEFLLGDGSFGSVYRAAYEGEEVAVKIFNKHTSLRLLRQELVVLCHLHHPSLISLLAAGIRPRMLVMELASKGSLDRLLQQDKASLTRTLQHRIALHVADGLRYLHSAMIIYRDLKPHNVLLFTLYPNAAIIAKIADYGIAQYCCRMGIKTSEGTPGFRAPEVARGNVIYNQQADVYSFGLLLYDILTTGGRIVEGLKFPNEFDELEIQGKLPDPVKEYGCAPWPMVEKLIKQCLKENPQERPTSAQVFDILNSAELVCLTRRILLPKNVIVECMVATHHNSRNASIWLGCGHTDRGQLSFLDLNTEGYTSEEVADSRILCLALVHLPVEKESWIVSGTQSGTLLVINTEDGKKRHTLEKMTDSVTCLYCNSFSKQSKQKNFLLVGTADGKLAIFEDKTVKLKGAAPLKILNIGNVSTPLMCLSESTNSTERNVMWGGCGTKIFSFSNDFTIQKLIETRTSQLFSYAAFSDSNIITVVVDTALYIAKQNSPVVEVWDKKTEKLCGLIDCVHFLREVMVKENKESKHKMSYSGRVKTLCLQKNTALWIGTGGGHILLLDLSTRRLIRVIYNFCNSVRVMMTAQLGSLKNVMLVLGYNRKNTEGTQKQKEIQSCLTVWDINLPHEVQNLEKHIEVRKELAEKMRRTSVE
Sequence of LRRK2 (G2019S) (Q5S007 970-2527 G2019S limits assumed): as the sequence (Q5S007 970-2527 limits assumed) above, with G1050S counted along it
T1 sequence (P49759 129-484 limits assumed): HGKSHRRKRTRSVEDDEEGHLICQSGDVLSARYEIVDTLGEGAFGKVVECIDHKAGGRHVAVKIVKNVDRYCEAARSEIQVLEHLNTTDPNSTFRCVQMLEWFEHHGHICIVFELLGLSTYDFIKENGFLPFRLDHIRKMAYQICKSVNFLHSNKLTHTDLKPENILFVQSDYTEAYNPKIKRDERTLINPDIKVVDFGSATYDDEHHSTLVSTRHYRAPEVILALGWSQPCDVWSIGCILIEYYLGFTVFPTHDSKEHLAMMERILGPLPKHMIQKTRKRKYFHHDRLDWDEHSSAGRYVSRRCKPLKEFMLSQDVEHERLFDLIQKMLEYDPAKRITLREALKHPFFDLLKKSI

| IC50 (human GST-CLK1) | GI50 (MDA-MB-468 cell line) | IC50 (human GST-DYRK1A) | IC50 (LRRK2 (G2019S)) | GI50 (MDA-MB-231 cell line) | IC50 (LRRK2) | Compound |
| --- | --- | --- | --- | --- | --- | --- |
| < 100 nM | < 50 nM | 301 to 1000 nM | < 100 nM | < 50 nM | < 100 nM | CCNc1nc(Nc2ccc(S(=O)(=O)N3CCC(N4CCOCC4)CC3)cc2OC)nc2[nH]cc(C#N)c12 [Example 82, 4-(ethylamino)-2-((2-methoxy-4-((4-morpholinopiperidin-1-yl)sulfonyl)phenyl)amino)-7H-pyrrolo[2,3-d]pyrimidine-5-carbonitrile] |
| 101 to 300 nM | < 50 nM | 301 to 1000 nM | < 100 nM | < 50 nM | < 100 nM | CCCNc1nc(Nc2ccc(S(=O)(=O)N3CCC(N4CCOCC4)CC3)cc2OC)nc2[nH]cc(C#N)c12 [Example 83, 2-((2-methoxy-4-((4-morpholinopiperidin-1-yl)sulfonyl)phenyl)amino)-4-(propylamino)-7H-pyrrolo[2,3-d]pyrimidin-5-carbonitrile] |
| < 100 nM | < 50 nM | 101 to 300 nM | < 100 nM | 101 to 300 nM | < 100 nM | COCCNc1nc(Nc2ccc(S(=O)(=O)N3CCC(N4CCOCC4)CC3)cc2OC)nc2[nH]cc(C#N)c12 [Example 87, 2-((2-methoxy-4-((4-morpholinopiperidin-1-yl)sulfonyl)phenyl)amino)-4-((2-methoxyethyl)amino)-7H-pyrrolo[2,3-d]pyrimidine-5-carbonitrile] |
| 101 to 300 nM | 51 to 100 nM | 101 to 300 nM | < 100 nM | 101 to 300 nM | < 100 nM | COc1cc(S(=O)(=O)N2CCC(N3CCOCC3)CC2)ccc1Nc1nc(NC2CC2)c2c(C#N)c[nH]c2n1 [Example 88, 4-(cyclopropylamino)-2-((2-methoxy-4-((4-morpholinopiperidin-1-yl)sulfonyl)phenyl)amino)-7H-pyrrolo[2,3-d]pyrimidine-5-carbonitrile] |
| 301 to 1000 nM | 101 to 300 nM | 301 to 1000 nM | – | 101 to 300 nM | < 100 nM | COc1cc(S(=O)(=O)N2CCC(N3CCOCC3)CC2)ccc1Nc1nc(NCC2CCCC2)c2c(C#N)c[nH]c2n1 [Example 95, 4-((cyclopentylmethyl)amino)-2-((2-methoxy-4-((4-morpholinopiperidin-1-yl)sulfonyl)phenyl)amino)-7H-pyrrolo[2,3-d]pyrimidine-5-carbonitrile] |
| 301 to 1000 nM | 51 to 100 nM | 301 to 1000 nM | – | 101 to 300 nM | < 100 nM | N#Cc1c[nH]c2nc(Nc3ccc(C(=O)N4CCOCC4)c4c3OCCO4)nc(NC3CCCC3)c12 [Example 126, 4-(cyclopentylamino)-2-((8-(morpholine-4-carbonyl)-2,3-dihydrobenzo[b][1,4]dioxin-5-yl)amino)-7H-pyrrolo[2,3-d]pyrimidine-5-carbonitrile] |
| 301 to 1000 nM | 301 to 1000 nM | 301 to 1000 nM | 101 to 300 nM | 301 to 1000 nM | < 100 nM | CC[C@H](C)Nc1nc(Nc2ccc(S(=O)(=O)N3CCC(N4CCOCC4)CC3)cc2OC)nc2[nH]cc(C(F)(F)F)c12 [Example 211, (S)-N^4-(sec-butyl)-N^2-(2-methoxy-4-((4-morpholinopiperidin-1-yl)sulfonyl)phenyl)-5-(trifluoromethyl)-7H-pyrrolo[2,3-d]pyrimidine-2,4-diamine] |
| 301 to 1000 nM | < 50 nM | 301 to 1000 nM | < 100 nM | < 50 nM | < 100 nM | C=CCNc1nc(Nc2ccc(S(=O)(=O)N3CCOCC3)cc2OC)nc2[nH]cc(C#N)c12 [Example 362, 4-(allylamino)-2-((2-methoxy-4-(morpholino-sulfonyl)phenyl)amino)-7H-pyrrolo[2,3-d] pyrimidine-5-carbonitrile] |
| 301 to 1000 nM | 301 to 1000 nM | 301 to 1000 nM | < 100 nM | 301 to 1000 nM | 101 to 300 nM | CCCNc1nc(Nc2ccc(S(=O)(=O)N3CCOCC3)cc2OC)nc2[nH]cc(C(F)(F)F)c12 [Example 372, N^2-(2-methoxy-4-(morpholino-sulfonyl)phenyl)-N^4-propyl-5-(trifluoromethyl)-7H-pyrrolo[2,3-d]pyrimidine-2,4-diamine] |
| 301 to 1000 nM | 301 to 1000 nM | 301 to 1000 nM | < 100 nM | 301 to 1000 nM | < 100 nM | COCCNc1nc(Nc2ccc(S(=O)(=O)N3CCOCC3)cc2OC)nc2[nH]cc(C(F)(F)F)c12 [Example 373, N^2-(2-methoxy-4-(morpholino-sulfonyl)phenyl)-N^4-(2-methoxyethyl)-5-(trifluoromethyl)-7H-pyrrolo[2,3-d]pyrimidine-2,4-diamine] |
| 301 to 1000 nM | 301 to 1000 nM | 301 to 1000 nM | < 100 nM | 301 to 1000 nM | < 100 nM | COc1cc(S(=O)(=O)N2CCOCC2)ccc1Nc1nc(NC2CC2)c2c(C(F)(F)F)c[nH]c2n1 [Example 374, N^4-cyclopropyl-N^2-(2-methoxy-4-(morpholino-sulfonyl)phenyl)-5-(trifluoromethyl)-7H-pyrrolo[2,3-d]pyrimidine-2,4-diamine] |
| 101 to 300 nM | 301 to 1000 nM | 301 to 1000 nM | < 100 nM | 101 to 300 nM | < 100 nM | COc1cc(S(=O)(=O)N2CCC(N3CCOCC3)CC2)ccc1Nc1nc(NC2CC2)c2c(C(F)(F)F)c[nH]c2n1 [Example 375, N^4-cyclopropyl-N^2-(2-methoxy-4-((4-morpholino-piperidin-1-yl)sulfonyl)phenyl)-5-(trifluoromethyl)-7H-pyrrolo[2,3-d]pyrimidine-2,4-diamine] |
| < 100 nM | 301 to 1000 nM | 301 to 1000 nM | 101 to 300 nM | 301 to 1000 nM | 101 to 300 nM | COc1cc(S(=O)(=O)N2CCOCC2)ccc1Nc1nc(NC2CCC2)c2c(C(F)(F)F)c[nH]c2n1 [Example 377, N^4-cyclobuty-N2-(2-methoxy-4-(morpholino-sulfonyl)phenyl)-5-(trifluoromethyl)-7H-pyrrolo[2,3-d]pyrimidine-2,4-diamine] |
| 301 to 1000 nM | 301 to 1000 nM | 301 to 1000 nM | < 100 nM | 101 to 300 nM | – | COc1cc(S(=O)(=O)N2CCOCC2)ccc1Nc1nc(N[C@@H]2CCOC2)c2c(C(F)(F)F)c[nH]c2n1 [Example 382, (R)-N^2-(2-methoxy-4-(morpholino-sulfonyl)phenyl)-N^4-(tetrahydrofuran-3-yl)-5-(trifluoromethyl)-7H-pyrrolo[2,3-d]pyrimidine-2,4-diamine] |
| 301 to 1000 nM | 301 to 1000 nM | 301 to 1000 nM | < 100 nM | 101 to 300 nM | – | COc1cc(S(=O)(=O)N2CCOCC2)ccc1Nc1nc(N[C@H]2CCOC2)c2c(C(F)(F)F)c[nH]c2n1 [Example 383, (S)-N^2-(2-methoxy-4-(morpholino-sulfonyl)phenyl)-N^4-(tetrahydrofuran-3-yl)-5-(trifluoromethyl)-7H-pyrrolo[2,3-d]pyrimidine-2,4-diamine] |
| 301 to 1000 nM | 101 to 300 nM | 301 to 1000 nM | – | 51 to 100 nM | < 100 nM | CCNc1nc(Nc2ccc(S(=O)(=O)N3CCC(N4CCOCC4)CC3)c3c2OCC3)nc2[nH]cc(C(F)(F)F)c12 [Example 467, N^4-ethyl-N^2-(4-((4-morpholino-piperidin-1-yl)sulfonyl)-2,3-dihydrobenzo-furan-7-yl)-5-(trifluoromethyl)-7H-pyrrolo[2,3-d]pyrimidine-2,4-diamine] |
